Data on 51 molecules can be found in PubChem BioAssay AID1996.

Values after ≈ are worked out from the molar mass of the structure shown. Bounds are passed on as bounds.

The conditions of this data set: buffer; pH 7.4; 200.0 µM.
With `O=C(Nc1ccc2c(c1)CCC2)c1ncoc1-c1ccccc1F`, the solubility (kinetic) (in general, the concentration staying in solution when a stock, usually in DMSO, is diluted into the medium) was < 0.3 µg/mL. `CCOC(=O)c1cn2nc(N3CCCCC3)ccc2n1`: the kinetic solubility is > 41.1 µg/mL. In the case of `CC(C)Oc1cccc(NC(=O)c2cnccc2C(F)(F)F)c1` it was 43.9 µg/mL (≈ 135 µM); in that of `COc1ccc(Cl)cc1NC(=O)CN1CCc2ccccc2C1`, < 0.4 µg/mL. For `COc1cc(/C=C/C(=O)OCC(=O)N(C)Cc2ccccc2)cc(OC)c1OC`, the solubility (kinetic) was > 59.9 µg/mL. For the molecule `O=S(=O)(c1cc(Cl)ccc1Cl)N1CCc2ccccc21`, the solubility (kinetic) was < 0.7 µg/mL. The figure for `Cc1cccc(C(=O)NCC(=O)OCC(=O)c2ccc(Cl)s2)c1` is > 52.8 µg/mL. The figure for `O=C(O)CNC(=S)NCc1ccccc1` is > 33.6 µg/mL; for `CCCN1CCC(NC(=O)C2CCCCC2C(=O)O)CC1` (stereo unspecified) it is > 44.5 µg/mL; for `COc1ccc(NC(=O)CCCCC(=O)Nc2ccc(OC)cc2OC)c(OC)c1` it is 12.4 µg/mL (≈ 29.8 µM). In the case of `CSCCNC(=O)c1ccc2nc(C3CCCCC3)oc2c1` it was 13.2 µg/mL (≈ 41.5 µM); in that of `CCOC(=O)CNC(=O)c1c(C)nn(C)c1Cl`, > 39 µg/mL; in that of `Nc1cc(Oc2ccc(Cl)cc2Cl)nc(N)n1`, 39.5 µg/mL (≈ 146 µM).

With `CC1C(=O)N2CCCc3cc(NC(=O)C(=O)NCc4ccccn4)cc1c32` (stereo unspecified), the kinetic solubility is > 54.7 µg/mL. `O=C1NC2=C(C(=O)CCC2)C(c2ccccc2Cl)N1` (stereo unspecified) returned a kinetic solubility of 39.1 µg/mL (≈ 141 µM). `O=C(NCCNc1ccc([N+](=O)[O-])cc1)c1cccs1` displayed a solubility (kinetic) of 6.7 µg/mL (≈ 23 µM). In the case of `O=C(CSc1ccccn1)Nc1ccc2c(c1)OCCO2` it was > 45.4 µg/mL; in that of `CC(NC(=O)c1cc2cc(Cl)ccc2oc1=N)c1ccccc1` (stereo unspecified), 4.2 µg/mL (≈ 12.9 µM). In the case of `COc1ccc(C(=O)CC(=O)C(=O)Nc2cccc(F)c2)cc1` it was 19 µg/mL (≈ 60.3 µM).

As to `O=C(OCC(=O)N1CCCCCC1)c1cccnc1Cl`, the kinetic solubility was > 44.5 µg/mL. As to `Cc1cc(=O)c(C(=O)O)nn1-c1ccc(Cl)cc1`, the solubility (kinetic) is > 39.7 µg/mL. Molecule `O=C(COC(=O)C1=COCCO1)Nc1cc(Cl)c(Cl)cc1Cl` showed a solubility (kinetic) of 5.3 µg/mL (≈ 14.5 µM).

Regarding `Cc1cc(Cl)ccc1C(=O)C1CCCN(Cc2ccon2)C1` (stereo unspecified), the kinetic solubility was 46.3 µg/mL (≈ 145 µM). The figure for `CCOc1ccc(Cc2noc3c2C(=O)CC(C)(C)C3)cc1OCC` is 46.4 µg/mL (≈ 135 µM). In the case of `O=S(=O)(c1ccccc1)N1CCN(CCO)CC1` it was > 40.6 µg/mL; in that of `COc1ccc(N2CC2c2ccncc2)cc1` (stereo unspecified), > 33.9 µg/mL.

Consider `CC(=O)Nc1ccc(S(=O)(=O)NCC(=O)Nc2ccc3c(c2)OCO3)cc1`, for which the kinetic solubility is > 58.7 µg/mL. `O=[N+]([O-])c1ccc(OCc2n[nH]c(=S)n2-c2ccccc2)cc1`: the kinetic solubility is > 49.3 µg/mL. In the case of `CC(C(=O)NC1CCCC1)N1CCN(Cc2ccccc2)CC1` (stereo unspecified) it was > 47.3 µg/mL; in that of `Cc1csc(NS(=O)(=O)c2ccc(Cl)cc2)n1`, 42.4 µg/mL (≈ 147 µM).

`Cc1cc(NC(=O)C(C)Oc2ccc(Cl)cc2Cl)no1` (stereo unspecified) registered a kinetic solubility of 9.1 µg/mL (≈ 28.9 µM). In the case of `Cl.OC(CNCc1ccc(-c2ccccc2)cc1)c1ccccc1` (stereo unspecified) it was 1.6 µg/mL; in that of `OCCNC(=S)Nc1cccc(Cl)c1Cl`, > 39.8 µg/mL. The figure for `O=C(Nc1ccc2ccccc2c1)c1cccc(F)c1` is 1.3 µg/mL (≈ 4.9 µM); for `CC(=O)Nc1ccc(S(=O)(=O)N2CCN(c3ccc([N+](=O)[O-])cc3)CC2)cc1` it is 0.4 µg/mL (≈ 0.989 µM). The figure for `CCS(=O)(=O)Nc1cccc(-c2nc3cccnc3s2)c1` is 45.4 µg/mL (≈ 142 µM); for `Clc1ccc(OCC#CCN2CCOCC2)cc1.O=C(O)C(=O)O` it is 50.3 µg/mL; for `COc1ccc(CCNc2ncnc3c2c(C)c(C)n3CCO)cc1OC` it is 53.8 µg/mL (≈ 145 µM). As to `O=C(NCCc1ccccc1)c1ccc(Cl)c(S(=O)(=O)N2CCOCC2)c1`, the kinetic solubility was determined as 9.3 µg/mL (≈ 22.7 µM). In the case of `Cc1ccc(S(=O)(=O)N2CCN(C(=O)Cn3c(=O)cnc4ccccc43)CC2)c(C)c1` it was > 66.1 µg/mL. In the case of `COc1ccc(CCC(=O)NCCc2ccc(Cl)cc2)cc1` it was 3.7 µg/mL (≈ 11.6 µM). The figure for `COc1ccc(C(=O)OCC(=O)N2CCc3ccccc32)cc1S(=O)(=O)N1CCOCC1` is 24.8 µg/mL (≈ 53.9 µM); for `Cc1ccc(NC(=O)C2CC(=O)N(C(C)C)C2)cc1C` (stereo unspecified) it is > 41.2 µg/mL. Regarding `COC(=O)c1ccc(N2CCN(C)CC2)c(NC(=O)c2cccs2)c1`, the solubility (kinetic) is > 53.9 µg/mL. The figure for `COc1ccc(C)cc1NC(=O)C1CCN(S(C)(=O)=O)CC1` is > 49 µg/mL; for `COc1cccc(C(NC(C)=O)c2ccc3cccnc3c2O)c1` (stereo unspecified) it is 44.4 µg/mL (≈ 138 µM); for `Cc1ccccc1NC(=O)NCCCCc1ccccc1` it is 1.5 µg/mL (≈ 5.31 µM). The figure for `Cc1ccc(-c2nc3ccccc3[nH]c2=O)cc1` is 1 µg/mL (≈ 4.23 µM). For `O=C(CCC(=O)OCC(F)(F)C(F)F)Nc1ccccc1F`, the kinetic solubility was > 48.8 µg/mL. In the case of `Cc1noc(C)c1CNCc1ccccc1.O=C(O)C(=O)O` it was > 45.9 µg/mL; in that of `CC(C)Cc1nnc(NC(=O)CCC(=O)N2CCCCC2)s1`, > 48.7 µg/mL.
